Data: patent US20200247812A1 (Integral Biosciences Private Limited, priority 2018, published 2020)

Columns and labels:
HT29 = assay: Cell viability assay (resazurin), HT29; assay type: cell-based; conditions: Homo sapiens, HT-29, 72-144 hr
Protocol: Different cell lines such as pancreatic, (MIA PaCa-2; ATCC®CRL-1420™ & and Panc-1; CRL-1469™), liver carcinoma (HepG2; ATCC® HB-8065™), lung epithelial carcinoma (A549; ATCC® CCL-185™) and others were seeded in their respective medium (DMEM, Cat #10569044, MEM, Cat #41090036; RPMI, Cat #22400089; all with 10% FBS, Gibco, ThermoFisher) at a cell count of 3000 cells per 100 μl per well in a 96 well edge plate (167425; ThermoFisher). Cells were allowed to grow at 37° C. for 24 hr in 5% CO2 (culture conditions) in a Nuaire incubator (humidified). Serially diluted compounds (100 μl) were added to the culture plate 24 hr later and the cultures were further incubated in culture conditions for specified time depending on doubling time of specific cell line (ranging from 72-144 hr). […] Fluorescence was then measured using a multimodal plate reader (Biotek Synergy Neo) at an excitation wavelength of 535 nm and emission wavelength of 590 nm to obtain relative fluorescence units. Data analysis was done by subtracting the background fluorescence (only medium blank) value from each reading and then normalizing with the vehicle control (DMSO treated cells) to obtain percent survival/proliferation. […]

THP1 = assay: Cell viability assay (resazurin), THP1; assay type: cell-based; conditions: Homo sapiens, THP-1, 72-144 hr
Protocol: (§1) Different cell lines such as pancreatic, (MIA PaCa-2; ATCC®CRL-1420™ & and Panc-1; CRL-1469™), liver carcinoma (HepG2; ATCC® HB-8065™), lung epithelial carcinoma (A549; ATCC® CCL-185™) and others were seeded in their respective medium (DMEM, Cat #10569044, MEM, Cat #41090036; RPMI, Cat #22400089; all with 10% FBS, Gibco, ThermoFisher) at a cell count of 3000 cells per 100 μl per well in a 96 well edge plate (167425; ThermoFisher). Cells were allowed to grow at 37° C. for 24 hr in 5% CO2 (culture conditions) in a Nuaire incubator (humidified). Serially diluted compounds (100 μl) were added to the culture plate 24 hr later and the cultures were further incubated in culture conditions for specified time depending on doubling time of specific cell line (ranging from 72-144 hr). Experiment was terminated at the completion of incubation time with the drug by replacing the medium with 100 μl of 1 mM of resazurin (R7017; Sigma) prepared in respective culture medium and the plates were further incubated in culture conditions for 4 hr. Fluorescence was then measured using a multimodal plate reader (Biotek Synergy Neo) at an excitation wavelength of 535 nm and emission wavelength of 590 nm to obtain relative fluorescence units. Data analysis was done by subtracting the background fluorescence (only medium blank) value from each reading and then normalizing with the vehicle control (DMSO treated cells) to obtain percent survival/proliferation. Percent survival at different doses was used to calculate IC50 by fitting the curve to the “four-parameter variable slope logistic model” using Prism Graph Pad.

ALK 5 = molecular target: T1, ALK 5 (Homo sapiens, UniProt P36897); assay: In vitro kinase assay (ALK5 IC50, LanthaScreen Terbium labeled TR-FRET); assay type: biochemical; conditions: TGF-β kinase 6 nM, ATP 10 μM, read-out: Enzyme Activity ALK 5 IC50
T1 sequence (P36897 34-503): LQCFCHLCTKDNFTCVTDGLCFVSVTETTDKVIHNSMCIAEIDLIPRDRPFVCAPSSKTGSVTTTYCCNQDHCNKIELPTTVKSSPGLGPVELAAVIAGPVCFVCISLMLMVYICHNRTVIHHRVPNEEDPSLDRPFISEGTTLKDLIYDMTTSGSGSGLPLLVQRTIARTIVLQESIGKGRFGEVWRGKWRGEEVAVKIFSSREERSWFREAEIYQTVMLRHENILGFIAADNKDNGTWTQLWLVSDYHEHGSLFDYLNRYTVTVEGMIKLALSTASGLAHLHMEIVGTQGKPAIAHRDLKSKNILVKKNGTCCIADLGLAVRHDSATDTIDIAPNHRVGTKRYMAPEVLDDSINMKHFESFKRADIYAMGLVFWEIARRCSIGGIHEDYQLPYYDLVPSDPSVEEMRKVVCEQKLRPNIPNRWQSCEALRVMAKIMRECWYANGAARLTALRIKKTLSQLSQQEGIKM
Summary of the method: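 LanthaScreen Tb TR-FRET: ALK5 (6 nM) preincubated 10 min with 3-fold diluted compounds, then 10 μM ATP and 200 nM fluorescent PolyGT substrate added for 1 h at room temperature. Stopped with EDTA/Tb antibody; 520/495 nm emission read. IC50 from four-parameter fit versus DMSO and no-enzyme controls.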

A549 = assay: Cell viability assay (resazurin), A549; assay type: cell-based; conditions: Homo sapiens, 72-144 hr
Protocol: as §1

[1] = tested on: phosphorylation of Smad-2 in THP-1 cells; assay: Inhibition of phosphorylation of Smad-2 in THP-1 cells (Phospho-Smad2 ELISA); assay type: cell-based; conditions: 1.5 h, human TGF-β 20 ng/ml, 90 min, read-out: pSmad2 IC50
Protocol: IC50 values of compounds for determining inhibition of phosphorylation of Smad-2 in THP-1 cells (ATCC, Cat # ATCC® TIB-202™) cultured in RPMI medium, (Cat #22400089; with 10% FBS, Gibco, ThermoFisher). THP-1 cells (1.0×10^6 cells/well; 6 well plate) were incubated with serial dilutions of compounds (3 fold, 5 point dose response starting at 10 μM) for 60 min at 37° C., 5% CO2 in an incubator (cell culture conditions) prior to treating them with Recombinant Human TGF-β (20 ng/ml soluble; Cat #100-21, Peprotech) for 90 min. The cells were then pelleted and processed for protein estimation and evaluation of pSmad using ELISA kit from Cell Signaling (PathScan(R) Phospho-Smad2 (Ser465/467) Sandwich ELISA; Cat #7348C) as per manufacturer's protocol. Data analysis was done by subtracting the background absorbance (only negative control) value from each reading and then normalizing with the vehicle control (DMSO treated cells) to obtain percent levels of pSmad-2. Percent inhibition thus obtained (by subtracting expression levels of pSmad from 100) at different doses was used to calculate IC50 by fitting the curve to the “four-parameter variable slope logistic model” using Prism Graph Pad.

22Rv1 = assay: Cell viability assay (resazurin), 22Rv1; assay type: cell-based; conditions: Homo sapiens, 72-144 hr
Protocol: as §1

AsPC-1 = assay: Cell viability assay (resazurin), AsPC-1; assay type: cell-based; conditions: Homo sapiens, ASPC1, 72-144 hr
Protocol: as §1

Structure (SMILES) | IC50 (HT29) [µM] | IC50 (THP1) [µM] | IC50 (ALK 5) [µM] | IC50 (A549) [µM] | IC50 [1] [µM] | IC50 (22Rv1) [µM] | IC50 (AsPC-1) [µM]
CC(C)c1[nH]c(=O)c(-c2cc(Cl)ccc2F)cc1Nc1ccnc2[nH]ccc12 [Compound 1.50, 5-((1H-pyrrolo[2,3-b]pyridin-4-yl)amino)-3-(5-chloro-2-fluorophenyl)-6-isopropylpyridin-2(1H)-one] | 3.82 | 13.4 | ≤ 0.5 | > 30 | 0.539 |  | 
CC(=O)Nc1cc(Nc2cc(-c3cc(Cl)ccc3F)c(=O)[nH]c2C(C)C)ccn1 [Compound 1.48, N-(4-((5-(5-chloro-2-fluorophenyl)-2-isopropyl-6-oxo-1,6-dihydropyridin-3-yl)amino)pyridin-2-yl)acetamide] | 14.7 | > 30 | ≤ 0.5 | > 30 | 0.123 | > 30 | > 30
